≈ marks a conversion by molar mass, not a printed value. Where two headings read alike, the source gives them in different places.
What was measured:
Caco-2 = experiment: WST-1 test, colon cancer cells; assay type: cell-based, human; details: Homo sapiens, Caco-2, 72 h
Method: Hybrids 4–14 were tested as anticancer agents against four human cancer cell lines: colon cancer (Caco-2), glioblastoma (SNB-19), lung cancer (A549), ovarian cancer (SKOV-3), and normal human dermal fibroblasts (NHDFs).
(§1) Cell cultures were performed in 96-well plates (Nunc Thermo Fisher Scientific, Waltham, MA, USA). Cells were seeded at 5 × 10^4/well and incubated for 24 h (at 37 °C, 5% CO2, and constant humidity). The medium was replaced with fresh with the addition of test compounds at a concentration of 0.1–100 µg/mL of DMSO and incubated again for another 72 h. After this time, the WST-1 test (Roche Molecular Biochemicals, Mannheim, Germany) was performed to assess the metabolic activity of the cells. Absorbance was measured at λ = 450 nm using a UVM340 microplate reader (Biogenet, Józefów, Poland). Results are expressed as the mean value of at least three independent experiments performed in triplicate.

A549 [1] = test system: A549; parameters: method as in doi:10.1016/j.arabjc.2016.10.009; details: values marked *; read-out: IC50 A-549; cited from earlier work
SKOV-3 = experiment: WST-1 test, ovarian cancer cells; assay type: cell-based, human; details: Homo sapiens, SK-OV-3, 72 h
Method: (§2) Hybrids 4–14 were tested as anticancer agents against four human cancer cell lines: colon cancer (Caco-2), glioblastoma (SNB-19), lung cancer (A549), ovarian cancer (SKOV-3), and normal human dermal fibroblasts (NHDFs). Cisplatin was used as the reference substance. The results are presented as the compound concentration of the compound (μM) that inhibits the growth of 50% of cancer cells compared to control cells (IC50). A negative value (Neg) means that the compound concentration of the tested hybrids was greater than 500 µM. […] It is generated only by a weak van der Waals interaction with Arg84. […] There is also a visible difference in activity depending on the type of group present on the triazole ring (substituent C in Figure 2). The results obtained indicate that hybrids containing aromatic systems as a C substituent in their structure, especially another quinoline molecule (compounds 9 and 10), have high activity.
as §1

NHDF = experiment: WST-1 test, normal human dermal fibroblasts; assay type: cell-based; details: Homo sapiens, NHDF; 72 h, WST-1, normal cells
Method: as §2, §1

SNB-19 = experiment: WST-1 test, glioblastoma cells; assay type: cell-based, human
Method: as §2, §1

A549 [2] = experiment: WST-1 test, lung cancer cells; assay type: cell-based, human; details: Homo sapiens, A549, 72 h, read-out: IC50 A-549
Method: as §2, §1

ROCK1 = details: read-out: IC50 for ROCK1; cited from earlier work
HCC = details: Figure 1; cited from earlier work

IC50 (Caco-2) [µM] | IC50 (SKOV-3) [µM] | IC50 (SNB-19; Homo sapiens, SNB-19, 72 h) [µM] | IC50 (SNB-19; 72 h) [µM] | Structure (SMILES) | IC50 (A549 [1]) [µM] | IC50 (NHDF) [µM] | melting point [°C] | IC50 (A549 [2]) [µM] | IC50 (ROCK1) [µM] | IC50 HCC (HCC) [µg/mL]
18 | 108 | 62.4 | – | O=S(=O)(NCc1cn(-c2ccnc3cc(Cl)ccc23)nn1)c1cccc2cccnc12 [Compound 9a, 8-N-{[1-(7-chloroquinolin-4-yl)-1H-1,2,3-triazol-4-yl]methyl}quinolinesulfonamide] | > 500 | > 500 | – | – | – | –
0.38 | 53.9 | 0.44 | – | CCCCn1cc(CNS(=O)(=O)c2cccc3cccnc23)nn1 [Compound 12a, 8-N-{[1-(1-butyl)-1H-1,2,3-triazol-4-yl]methyl}quinolinesulfonamide] | > 500 | > 500 | – | – | – | –
0.32 | 64.6 | ≤ 0.4 | 0.39 | CCOC(=O)CCn1cc(CNS(=O)(=O)c2cccc3cccnc23)nn1 [Compound 13a, Ethyl 3-{[4-(8-sulfamoylquinolyl)methyl]-1H-1,2,3-triazol-1-yl}propanoate] | > 500 | 223 | – | – | – | –
– | – | – | – | O=S(=O)(c1cccc2cnccc12)N1CCCNCC1 [Fasudil] | – | – | – | – | […] | 0.04 (≈ 0.137 µM)

Structure (SMILES) | IC50 (Caco-2) [µM] | IC50 (SKOV-3) [µM] | IC50 (SNB-19; Homo sapiens, SNB-19, 72 h) [µM] | IC50 (SNB-19; 72 h) [µM] | IC50 (A549 [1]) [µM] | IC50 (NHDF) [µM] | melting point [°C] | IC50 (A549 [2]) [µM] | IC50 (ROCK1) [µM] | IC50 HCC (HCC) [µg/mL]
C=C(Cn1cc(CNS(=O)(=O)c2cccc3cccnc23)nn1)[C@@H]1CC[C@]2(COC(C)=O)CC[C@]3(C)[C@H](CC[C@@H]4[C@@]5(C)CC[C@H](OC(C)=O)C(C)(C)[C@@H]5CC[C@]43C)[C@@H]12 [Compound 14a, 8-N-({1-[3β, 28-Diacetoxylup-20(29)-en-30-yl]-1H-1,2,3-triazol-4-yl}methyl)-quinolinesulfonamide] | > 500 | > 500 | 101 | – | – | > 500 | 148 to 149 | > 500 | – | –
C=C(Cn1cc(CN(C)S(=O)(=O)c2cccc3cccnc23)nn1)[C@@H]1CC[C@]2(COC(C)=O)CC[C@]3(C)[C@H](CC[C@@H]4[C@@]5(C)CC[C@H](OC(C)=O)C(C)(C)[C@@H]5CC[C@]43C)[C@@H]12 [Compound 14b, 8-N-methyl-N-({1-[3β, 28-diacetoxylup-20(29)-en-30-yl]-1H-1,2,3-triazol-4-yl}methyl)-quinolinesulfonamide] | 18.2 | 1.09 | 9.26 | – | > 500 | > 500 | – | – | – | –

Reference: publication PMC11243625, “Synthesis, Docking, and Machine Learning Studies of Some Novel Quinolinesulfonamides–Triazole Hybrids with Anticancer Activity” (Molecules, 2024)
